The source of these data is US4091097A, “Treatment of elevated histamine and uric acid levels” (Zaidan Hojin Biseibutsu Kagaku Kenkyu Kai, priority 1973, dated 1978).

One data set addresses T1, histidine decarboxylase (Rattus norvegicus, UniProt P16453).
T1 construct: a crude enzyme preparation obtained from fetal rats; from tissue
T1 sequence (P16453 1-656): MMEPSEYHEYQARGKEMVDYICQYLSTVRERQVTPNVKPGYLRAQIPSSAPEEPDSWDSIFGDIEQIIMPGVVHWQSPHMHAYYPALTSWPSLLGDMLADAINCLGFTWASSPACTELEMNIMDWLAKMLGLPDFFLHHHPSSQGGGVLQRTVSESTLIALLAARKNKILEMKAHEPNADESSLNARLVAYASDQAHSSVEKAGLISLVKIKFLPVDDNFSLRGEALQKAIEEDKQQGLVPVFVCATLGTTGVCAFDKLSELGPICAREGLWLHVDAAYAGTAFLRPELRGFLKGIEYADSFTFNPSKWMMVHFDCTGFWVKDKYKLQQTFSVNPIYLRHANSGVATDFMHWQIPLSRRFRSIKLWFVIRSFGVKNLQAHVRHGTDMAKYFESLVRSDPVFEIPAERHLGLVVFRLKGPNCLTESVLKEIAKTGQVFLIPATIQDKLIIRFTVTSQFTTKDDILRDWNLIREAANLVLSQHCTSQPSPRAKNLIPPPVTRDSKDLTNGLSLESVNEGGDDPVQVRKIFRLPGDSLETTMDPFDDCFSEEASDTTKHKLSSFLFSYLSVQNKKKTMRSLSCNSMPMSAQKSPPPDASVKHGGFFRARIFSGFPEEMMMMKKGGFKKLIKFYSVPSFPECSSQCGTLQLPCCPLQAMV
The data set can be described thus: Inhibition of Histidine Decarboxylase (14C-histamine formation). It is filed as biochemical, fetal rats. On the procedure:
After two hours of incubation at 37° C., the histamine 2-^14 C formed was collected on an ion exchange resin ("Amberlite" CG-50, ammonia type) from which, after washing with water, the histamine was liberated in 1N aqueous ammonia solution and radioactivity was measured.

The test system of a further data set is mice and rats. Conditions: in vivo. On the procedure:
The acute toxicity was determined for oral and intraperitoneal administration with mice and rats (6 mice and 2 rats in one dose group), and the LD50 value, i.e., the single application dose killing 50% of the test animals, was estimated.

Data set [1] deals with acetic acid-induced stretching movements. Briefly: Analgesic Activity in mice (acetic acid stretching). It is filed as in vivo, mice (DDY Strain). Conditions: control (no drug) 53. As to the method: Male mice of the DDY Strain having mean body weight of 20 g. were divided to the groups of 10 animals each, to which compounds of this invention or aminopyrine in saline solution were administered intraperitoneally (i.p.). The dosage was 200, 50 or 12.5 mg./kg. Then 30 minutes later, 0.2 ml. per 20 g. body weight of 0.7% acetic acid in saline was injected intraperitoneally and the number of characteristic stretching movements counted for 20 minute period and compared with a control group receiving no analgesic.

Data set [2] has as its system pyrexia induced by TTG No. 2. Briefly: Antipyretic Activity in Pyrexia-Induced Rabbits. Type of data set: in vivo, Japanese rabbits. The conditions noted are these: 200 mg./kg. oral. On the procedure: Common white male Japanese rabbits, 2.0 - 3.0 kg. body weight, were injected through the ear vein with 20 μg./kg. of a pyrexia inducer TTG No. 2, purified polysaccharide preparation obtained from Pseudomonas aeruginosa (marketed by Fujisawa Pharmaceutical Company, Japan), and the body temperature was monitored with a rectal thermister-type thermometer. Three hours prior to the TTG injection four rabbits in each experimental section orally received the test drug in the dose of 200 mg./kg. One group received aspirin in a dose of 100 mg./kg and a control group no drug.

[3] abbreviates: pH 6.8, two hours at 37° C., read-out: Histidine Decarboxylase Inhibition ID50.
The mark [4] stands for this setting: 2 hrs. after TTG, control (no drug) 1.2.
Setting [5] is: 4 hrs. after TTG, control (no drug) 1.6.

Structures are written as SMILES. Where two headings read alike, the source gives them in different places.

Take `CCc1ccc(C(=O)Nc2cc(Br)c(O)c(CC)c2)c(O)c1` [Compound 17]: at histidine decarboxylase (setting [3]), the IC50 was determined as 460 nM.

For the molecule `CC(=O)Oc1ccc(C(=O)Nc2cc(Cl)c(O)c(Cl)c2)c(OC(C)=O)c1` [Compound 39], the IC50 on histidine decarboxylase (setting [3]) came out at 190 nM.

Consider `CCC(=O)Oc1ccccc1C(=O)Nc1cc(Cl)c(N)c(Cl)c1` [Compound 38], for which the IC50 on histidine decarboxylase (setting [3]) turned out to be 200 nM.

For the molecule `Cc1cc(NC(=O)c2ccc(Br)cc2O)cc(C(=O)O)c1O` [Compound 19], the IC50 on histidine decarboxylase (setting [3]) came out at 330 nM. Moreover, the comparative toxicity result in the data set on mice and rats was “comparatively more toxic than the others”.

Molecule `O=C(Nc1cc(Br)c(O)c(Br)c1)c1ccccc1O` [Compound 3] displayed an IC50 at histidine decarboxylase of 23 nM. The “Analgesic Activity: Stretching Count (20 minutes)” value (shortened to “Analgesic Activity”) is 17 in data set [1] (50 mg./kg. i.p.) and 6 in data set [1] (200 mg./kg. i.p.). The “Antipyretic Activity: Elevation of Body Temperature” value (from here on “Antipyretic Activity: Elevation”) in data set [2] (setting [4]) amounted to 0.6 °C; in data set [2] (setting [5]), 0.5 °C. Further, in the data set with mice and rats, the comparative toxicity result was “comparatively more toxic than the others”.

Take `CCC(=O)Oc1ccc(OC(=O)CC)c(C(=O)Nc2cc(Cl)c(N)c(C(=O)OC)c2)c1` [Compound 43]: the IC50 on histidine decarboxylase (setting [3]) amounted to 530 nM. For the same molecule, the comparative toxicity entry in the data set with mice and rats is given as “comparatively more toxic than the others”.

As to `O=C(Nc1cc(Cl)c(O)c(C(=O)O)c1)c1cc(O)ccc1O` [Compound 23], the IC50 on histidine decarboxylase (setting [3]) turned out to be 500 nM.

Turning to `CC(C)CC(=O)Oc1ccccc1C(=O)Nc1cc(Cl)c(OC(=O)CC(C)C)c(Cl)c1` [Compound 31], on histidine decarboxylase (setting [3]), the IC50 was 17 nM. Moreover, the “Analgesic Activity” value in data set [1] (50 mg./kg. i.p.) was found to be 13; in data set [1] (200 mg./kg. i.p.), 4. In addition, the figures for the “Antipyretic Activity: Elevation” value in data set [2] (setting [4]) and in data set [2] (setting [5]) were 0.6 °C and 0.5 °C, respectively.

With `Cc1c(N(C)C)c(=O)n(-c2ccccc2)n1C` [Aminopyrine, reference compound], the “Analgesic Activity” value came out at 8 in data set [1] (50 mg./kg. i.p.) and 2 in data set [1] (200 mg./kg. i.p.). Moreover, the “Antipyretic Activity: Elevation” value in data set [2] (setting [4]) worked out at 0.4 °C; in data set [2] (setting [5]), 0.3 °C.

Regarding `CCC(=O)Oc1ccc(NC(=O)c2ccc(O)cc2OC(=O)CC)cc1Br` [Compound 36], the IC50 at histidine decarboxylase (setting [3]) stood at 490 nM.

Take `CC(=O)Oc1ccc(OC(C)=O)c(C(=O)Nc2cc(Cl)c(O)c(Cl)c2)c1` [Compound 40]: the IC50 on histidine decarboxylase (setting [3]) is 310 nM.

Take `CCOC(=O)c1cc(NC(=O)c2ccccc2OC(C)=O)cc(Cl)c1O` [Compound 44]: at histidine decarboxylase (setting [3]), the IC50 was found to be 230 nM.

On histidine decarboxylase, `Cc1ccc(C(=O)Nc2cc(Br)c(O)c(Br)c2)c(O)c1` [Compound 22] gave an IC50 of 800 nM. Besides, the comparative toxicity result in the data set with mice and rats is “comparatively more toxic than the others”.

Consider `O=C(Nc1cc(Cl)c(O)c(Cl)c1)c1cc(F)ccc1O` [Compound 10], for which the IC50 on histidine decarboxylase (setting [3]) was found to be 230 nM. In addition, the “Analgesic Activity” value in data set [1] (50 mg./kg. i.p.) came out at 35; in data set [1] (200 mg./kg. i.p.) it was 20. In addition, the “Antipyretic Activity: Elevation” value turned out to be 0.6 °C in data set [2] (setting [4]) and 0.5 °C in data set [2] (setting [5]).

Consider `Nc1c(Cl)cc(NC(=O)c2ccccc2O)cc1Cl` [Compound 24], for which the IC50 on histidine decarboxylase (setting [3]) is 140 nM. The comparative toxicity entry with mice and rats was “comparatively more toxic than the others”.

`Cc1ccc(C(=O)Nc2cc(Cl)c(O)c(Cl)c2)c(O)c1` [Compound 8] registered an IC50 at histidine decarboxylase of 96 nM. The “Analgesic Activity” value was found to be 40 in data set [1] (50 mg./kg. i.p.) and 21 in data set [1] (200 mg./kg. i.p.). In addition, the “Antipyretic Activity: Elevation” value in data set [2] (setting [4]) was determined as 0.6 °C; in data set [2] (setting [5]), 0.5 °C.

With `CC(=O)Oc1cc(O)ccc1C(=O)Nc1cc(C)c(OC(C)=O)c(Cl)c1` [Compound 34], on histidine decarboxylase (setting [3]), the IC50 was determined as 390 nM.

For `CCOc1c(Cl)cc(NC(=O)c2ccc(O)cc2O)cc1Br` [Compound 15], the IC50 at histidine decarboxylase (setting [3]) worked out at 310 nM. Moreover, in the data set on mice and rats, the comparative toxicity entry is reported as “comparatively more toxic than the others”.

Consider `O=C(Nc1cc(Cl)c(O)c(Cl)c1)c1ccc(O)cc1O` [Compound 4], for which, at histidine decarboxylase (setting [3]), the IC50 is 28 nM. The “Analgesic Activity” value in data set [1] (50 mg./kg. i.p.) came to 13; in data set [1] (200 mg./kg. i.p.) it was 6. Also, the “Antipyretic Activity: Elevation” value in data set [2] (setting [4]) amounted to 0.5 °C; in data set [2] (setting [5]), 0.4 °C.

`CCc1cc(NC(=O)c2cc(C)ccc2O)cc(C(=O)OC)c1O` [Compound 29]: the IC50 on histidine decarboxylase (setting [3]) amounted to 980 nM.

Take `CCc1ccc(O)c(C(=O)Nc2cc(Br)c(O)c(CC)c2)c1` [Compound 18]: the IC50 at histidine decarboxylase (setting [3]) came out at 710 nM.

On histidine decarboxylase, `O=C(Nc1ccc(O)c(Cl)c1)c1cc(Br)ccc1O` [Compound 20] had an IC50 of 580 nM. For the same molecule, the comparative toxicity result in the data set on mice and rats was “comparatively more toxic than the others”.

Turning to `COc1c(F)cc(NC(=O)c2cc(Cl)ccc2O)cc1Cl` [Compound 26], the IC50 at histidine decarboxylase (setting [3]) is 690 nM.

For `Cc1cc(NC(=O)c2ccccc2O)cc(Cl)c1O` [Compound 12], on histidine decarboxylase (setting [3]), the IC50 stood at 120 nM.

Regarding `CC(=O)Oc1cc(F)ccc1C(=O)Nc1cc(C)c(OC(C)=O)c(Br)c1` [Compound 37], the IC50 at histidine decarboxylase (setting [3]) was 420 nM.

Turning to `O=C(Nc1cc(Cl)c(O)c(Cl)c1)c1ccc(F)cc1O` [Compound 9], the IC50 at histidine decarboxylase (setting [3]) is 89 nM. Also, the “Analgesic Activity” value is on record as 35 in data set [1] (50 mg./kg. i.p.) and 20 in data set [1] (200 mg./kg. i.p.). In addition, the “Antipyretic Activity: Elevation” value in data set [2] (setting [4]) and in data set [2] (setting [5]) was 0.6 °C in each case.

As for `CCc1cc(NC(=O)c2ccc(O)cc2O)cc(F)c1OC` [Compound 16], on histidine decarboxylase (setting [3]), the IC50 turned out to be 810 nM.

In the case of `CCOc1ccc(NC(=O)c2ccc(F)cc2O)cc1Cl` [Compound 21], the IC50 at histidine decarboxylase (setting [3]) came out at 500 nM.

With `CC(=O)Oc1ccccc1C(=O)Nc1cc(Cl)c(OC(C)=O)c(Cl)c1` [Compound 30], the IC50 at histidine decarboxylase (setting [3]) worked out at 24 nM. In addition, the entries for the “Analgesic Activity” value in data set [1] (50 mg./kg. i.p.) and in data set [1] (200 mg./kg. i.p.) were 14 and 4, respectively. For the same molecule, the “Antipyretic Activity: Elevation” value in data set [2] (setting [4]) and in data set [2] (setting [5]) was 0.5 °C throughout.

In the case of `CCc1cc(NC(=O)c2ccc(C)cc2O)cc(C(=O)OC)c1O` [Compound 28], the IC50 at histidine decarboxylase (setting [3]) was determined as 790 nM.

Take `O=C(Nc1cc(Cl)c(O)c(C(=O)O)c1)c1ccccc1O` [Compound 7]: the IC50 at histidine decarboxylase (setting [3]) was determined as 110 nM. Moreover, the “Analgesic Activity” value worked out at 40 in data set [1] (50 mg./kg. i.p.) and 14 in data set [1] (200 mg./kg. i.p.). Moreover, the figures for the “Antipyretic Activity: Elevation” value in data set [2] (setting [4]) and in data set [2] (setting [5]) were 0.6 °C and 0.5 °C, respectively.

For `O=C(Nc1cc(F)c(O)c(Cl)c1)c1ccccc1O` [Compound 13], the IC50 on histidine decarboxylase (setting [3]) stood at 230 nM.

For the molecule `CC(=O)Oc1ccc(O)cc1C(=O)Nc1cc(C)c(OC(C)=O)c(Cl)c1` [Compound 35], the IC50 on histidine decarboxylase (setting [3]) was 600 nM.

On to `O=C(Nc1ccc(O)c(Cl)c1)c1ccccc1O` [Compound 2], for which, at histidine decarboxylase (setting [3]), the IC50 worked out at 2500 nM. The “Analgesic Activity” value in data set [1] (50 mg./kg. i.p.) is 30; in data set [1] (200 mg./kg. i.p.) it was 12. In addition, the “Antipyretic Activity: Elevation” value turned out to be 0.6 °C in data set [2] (setting [4]) and 0.5 °C in data set [2] (setting [5]).

Consider `COc1c(Cl)cc(NC(=O)c2ccccc2O)cc1Cl` [Compound 11], for which, at histidine decarboxylase (setting [3]), the IC50 is 210 nM.

Take `CCCC(=O)Oc1ccc(C(=O)Nc2cc(Cl)c(N)c(C(=O)OC)c2)c(OC(=O)CCC)c1` [Compound 42]: the IC50 at histidine decarboxylase (setting [3]) turned out to be 510 nM. The comparative toxicity result in the data set with mice and rats was “comparatively more toxic than the others”.

For the molecule `CCOC(=O)c1cc(NC(=O)c2ccccc2OC(=O)c2ccccc2)cc(Cl)c1O` [Compound 41], the IC50 on histidine decarboxylase (setting [3]) was 320 nM.
